Results as given in PMC4394430, “Licochalcone A, a Polyphenol Present in Licorice, Suppresses UV-Induced COX-2 Expression by Targeting PI3K, MEK1, and B-Raf” (International Journal of Molecular Sciences, 2015).

Tests used:
B-Raf [1] = target: T1, B-Raf (Homo sapiens, UniProt P15056); conditions: 10 and 100 uM ATP; 4 C; competitive with LicoA
T1 construct: gene BRAF

MEK1 = target: T2, MEK1 (Homo sapiens, UniProt Q02750); experiment: LicoA-Sepharose 4B pull-down, immunoblot; type: binding; conditions: pH 7.5; 4 C; immobilised LicoA; not blocked by ATP (non-competitive)
T2 construct: gene MAP2K1
T2 sequence (Q02750 whole entry): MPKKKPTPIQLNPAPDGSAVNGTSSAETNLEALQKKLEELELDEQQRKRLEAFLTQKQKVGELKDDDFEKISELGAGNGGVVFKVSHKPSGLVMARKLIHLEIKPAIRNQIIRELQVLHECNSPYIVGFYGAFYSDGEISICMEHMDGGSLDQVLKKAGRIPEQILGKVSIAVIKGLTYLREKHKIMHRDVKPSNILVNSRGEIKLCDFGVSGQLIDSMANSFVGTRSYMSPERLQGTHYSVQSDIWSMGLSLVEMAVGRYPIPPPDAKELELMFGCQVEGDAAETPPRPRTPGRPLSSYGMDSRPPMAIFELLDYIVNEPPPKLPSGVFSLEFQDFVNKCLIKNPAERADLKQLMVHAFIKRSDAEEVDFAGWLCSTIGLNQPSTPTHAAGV

B-Raf [2] = target: T1, B-Raf; experiment: LicoA-Sepharose 4B pull-down, immunoblot; type: binding; conditions: pH 7.5; 4 C; immobilised LicoA; blocked by ATP (ATP-competitive)
B-Raf [3] = target: T1, B-Raf; experiment: […] kinase assay, inactive MEK1 and MBP peptide; type: biochemical; conditions: 5 and 10 uM LicoA; pH 7.5; 30 C; coupled readout; ATP-competitive

T1 sequence (P15056 2-766): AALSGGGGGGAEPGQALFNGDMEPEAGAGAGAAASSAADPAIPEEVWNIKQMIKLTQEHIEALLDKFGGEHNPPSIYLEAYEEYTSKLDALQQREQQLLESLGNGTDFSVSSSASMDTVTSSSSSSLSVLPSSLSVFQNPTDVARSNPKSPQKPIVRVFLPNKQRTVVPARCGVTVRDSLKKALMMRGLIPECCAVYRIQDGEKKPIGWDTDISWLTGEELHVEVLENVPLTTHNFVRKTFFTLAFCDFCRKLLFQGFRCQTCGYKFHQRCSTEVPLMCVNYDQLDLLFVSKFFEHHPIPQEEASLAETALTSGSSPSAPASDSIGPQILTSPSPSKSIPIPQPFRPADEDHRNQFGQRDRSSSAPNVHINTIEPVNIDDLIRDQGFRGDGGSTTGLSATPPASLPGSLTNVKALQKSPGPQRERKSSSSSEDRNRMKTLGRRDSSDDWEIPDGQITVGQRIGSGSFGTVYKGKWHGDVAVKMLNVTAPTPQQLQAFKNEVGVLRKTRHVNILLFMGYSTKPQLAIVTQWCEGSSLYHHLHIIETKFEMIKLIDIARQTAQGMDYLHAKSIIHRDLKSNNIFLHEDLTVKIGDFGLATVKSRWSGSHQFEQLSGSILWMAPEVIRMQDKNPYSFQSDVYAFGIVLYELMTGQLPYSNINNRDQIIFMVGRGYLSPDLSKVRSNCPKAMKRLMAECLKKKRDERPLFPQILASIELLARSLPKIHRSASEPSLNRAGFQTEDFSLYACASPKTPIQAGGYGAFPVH

SMILES	ATP competition with LicoA-Sepharose 4B pull-down (B-Raf [1])	LicoA-Sepharose 4B pull-down, immunoblot (MEK1)	LicoA-Sepharose 4B pull-down, immunoblot (B-Raf [2])	% inhibition (B-Raf [3])
Nc1ncnc2c1ncn2[C@@H]1O[C@H](COP(=O)(O)OP(=O)(O)OP(=O)(O)O)[C@@H](O)[C@H]1O [ATP]	ATP treatment blocked the binding ability of LicoA with PI3K (Figure 4B) and B-Raf (Figure 4F)	–	–	–
C=CC(C)(C)c1cc(/C=C/C(=O)c2ccc(O)cc2)c(OC)cc1O [LicoA, Licochalcone A]	–	LicoA binds with MEK1 in an ATP non-competitive manner	LicoA binds with PI3K and B-Raf in competition with ATP	strongly blocked B-Raf (Figure 3C) activity in a dose-dependent manner
